Read-outs that look alike come from different tables or passages of the source.
How the values were obtained:
[1] = target: T1, SHP2 (Homo sapiens (Human), UniProt Q06124); experiment: SHP2 allosteric inhibitory enzyme activity assay (DiFMUP fluorescence); assay type: biochemical; details: read-out: SHP2 enzymatic activity IC50
Procedure, shortened: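 Human SHP2 (0.2 ng) preincubated 1 h at room temperature with 25 µM activating peptide IRS1_pY1172(dPEG8)pY1222 and compound (10-point series from 10 µM) in HEPES/NaCl/KCl/BRIJ-35/EDTA/DTT buffer. DiFMUP then added for 1 h; fluorescence at ex 340/em 450 nm, normalized to no-enzyme and no-inhibitor controls, IC50 from variable-slope fit.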

[2] = system: leukemia cells MV-4-11; experiment: Cell proliferation assay, CELL TITER-GLO (CTG) luminescence, MV-4-11; assay type: cell-based
Procedure, shortened: (§1)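 NCI-H358 (2000 cells/well, ultra-low-attachment plates) and MV-4-11 cells were dosed 24 h after seeding at 1000 nM down to 0.1524 nM (3-fold steps). Viable-cell ATP was read by CellTiter-Glo luminescence after 96 h for NCI-H358 and 120 h for MV-4-11. IC50 came from a variable-slope fit of inhibition versus the 0 nM control.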

[3] = system: lung cancer cells NCI-H358; experiment: Cell proliferation assay, CELL TITER-GLO (CTG) luminescence, NCI-H358; assay type: cell-based; details: cultured for 96 hrs
Procedure, shortened: as §1

[4] = In vitro metabolic stability in liver microsomes, human; assay type: in vitro ADME; details: for microsomal CLint at 2 µM: pH 7.3, read-out: CLint (µL/min/mg protein) human
Experimental: (§2) Example D: In Vitro Metabolic Stability of Human and Rat Liver Microsomes Test Buffer Preparation
(§3) Dissolve 1900 mg of MgCl2 in 400 mL of ultrapure water.
(§4) Dissolve 17.42 g K2HPO4 and 13.65 g KH2PO4 into 1000 mL of ultrapure water, respectively. Mix a certain proportion of K2HPO4 and KH2PO4 to adjust the pH to 7.30 ± 0.10.
(§5) Prepare a solution of 10 ng/mL labetalol and 10 ng/mL glyburide in acetonitrile and store at 4° C.
(§6) Prepare 10 mM verapamil (positive control) and test article stock solutions in DMSO. Then, with MeOH/ACN/H2O solution (1:1:2 by volume), diluted to 50 µM and 200 µM working solutions, respectively.
(§7) experiment procedure: • 1) Add 40 µL MgCl2 and 306 µL PBS to 96 wells (set blank control group, positive control group, test compound sample group, and negative control group at the same time) • 2) Add 4 µL of compound working solution to each well (4 µL of PBS buffer for blank group) (Note: the final concentration of DMSO volume in the system is ≤ 0.5%) • 3) Add 10 µL of liver microsomes (concentration: 20 mg/mL) to each well, mix well, and pre-incubate at 37° C. for 10 minutes. • 4) Add 40 µL of 10 mM NADPH working solution to each well to start the reaction (add equal volume of PBS buffer for blank control group and negative control group respectively), the total reaction volume is 400 µL. • 5) Take out 50 µL samples from the above reaction solution at 0, 5, 15, and 45 minutes, and add 400 µL of reaction stop solution to stop the reaction • 6) Shake the sample after the termination of the reaction on a shaker for 5 minutes. • 7) Centrifuge the sample at 3200 rcf for 10 minutes. After the centrifugation is complete, transfer 50 µL of the supernatant to 200 µL of H2O for dilution for LC-MS/MS analysis.
(§8) Calculations of t½ and CLint are performed using the first-order kinetic equations: […]
(§9) where k represents the elimination constant, calculated from a log-linear plot of percentage remaining versus time. t½ represents half-life. Cprotein is the concentration of liver microsomes.

[5] = In vitro metabolic stability in liver microsomes, rat; assay type: in vitro ADME; details: for microsomal CLint at 2 µM: pH 7.3, read-out: CLint (µL/min/mg protein) rat
Experimental: as §2, §3, §4, §5, §6, §7, §8, §9

[6] = In vitro metabolic stability in liver microsomes, mouse; assay type: in vitro ADME; details: for microsomal CLint at 2 µM: pH 7.3, read-out: CLint (µL/min/mg protein) mouse
[7] = In vitro metabolic stability in liver microsomes, monkey; assay type: in vitro ADME; details: for microsomal CLint at 2 µM: pH 7.3, read-out: CLint (µL/min/mg protein) monkey
[8] = In vitro metabolic stability in liver microsomes, dog; assay type: in vitro ADME; details: for microsomal CLint at 2 µM: pH 7.3
[9] = target: T2, hERG potassium channel (Homo sapiens (Human), UniProt Q12809)
T2 sequence (Q12809 whole entry): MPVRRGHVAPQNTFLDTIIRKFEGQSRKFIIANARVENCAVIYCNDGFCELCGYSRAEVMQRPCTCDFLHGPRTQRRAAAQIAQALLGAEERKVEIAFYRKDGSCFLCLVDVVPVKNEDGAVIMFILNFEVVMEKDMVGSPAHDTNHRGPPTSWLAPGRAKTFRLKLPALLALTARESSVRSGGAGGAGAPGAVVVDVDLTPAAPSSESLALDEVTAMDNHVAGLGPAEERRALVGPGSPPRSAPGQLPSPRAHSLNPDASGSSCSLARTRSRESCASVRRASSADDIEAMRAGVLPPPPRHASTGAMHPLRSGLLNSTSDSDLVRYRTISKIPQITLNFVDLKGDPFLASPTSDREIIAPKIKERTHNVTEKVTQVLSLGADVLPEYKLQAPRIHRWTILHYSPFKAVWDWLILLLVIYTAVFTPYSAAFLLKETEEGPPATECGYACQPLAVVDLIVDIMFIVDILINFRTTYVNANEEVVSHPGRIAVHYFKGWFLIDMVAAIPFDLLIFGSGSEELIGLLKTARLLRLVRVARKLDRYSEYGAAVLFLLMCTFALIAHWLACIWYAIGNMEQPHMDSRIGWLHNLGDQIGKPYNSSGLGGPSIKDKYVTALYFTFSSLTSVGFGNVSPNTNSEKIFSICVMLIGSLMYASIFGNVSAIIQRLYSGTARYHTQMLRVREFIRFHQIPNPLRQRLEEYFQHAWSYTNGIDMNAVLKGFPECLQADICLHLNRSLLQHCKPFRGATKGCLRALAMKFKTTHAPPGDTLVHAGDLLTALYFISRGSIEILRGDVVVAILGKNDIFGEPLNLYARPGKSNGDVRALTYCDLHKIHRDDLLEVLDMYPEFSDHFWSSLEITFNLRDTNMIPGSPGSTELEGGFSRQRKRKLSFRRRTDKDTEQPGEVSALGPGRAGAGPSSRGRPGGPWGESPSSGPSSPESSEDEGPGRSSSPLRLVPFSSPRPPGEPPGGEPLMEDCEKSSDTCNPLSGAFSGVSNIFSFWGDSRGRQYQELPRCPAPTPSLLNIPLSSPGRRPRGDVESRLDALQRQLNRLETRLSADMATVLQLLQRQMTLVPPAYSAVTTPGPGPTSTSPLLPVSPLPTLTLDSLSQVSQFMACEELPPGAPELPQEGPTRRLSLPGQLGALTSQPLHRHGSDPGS
Experimental: (§10) Example C Patch Clamp Experiments to Assess the Effects of Compounds on the hERG Ion Channel
(§11) Dilute the test sample diluent in sequence with extracellular fluid to prepare detection solutions with final concentrations of 0.3 µM, 1 µM, 3 µM, 10 µM and 30 µM. The solubility of the samples to be tested was visually checked.
(§12) The cell line was derived from HEK293 cells and cultured in a 37° C., 5% CO2 incubator. In order to prevent cell senescence caused by contact inhibition, when the cell culture confluence should not exceed 80%, the cells should be passaged every ¾ days, and the inoculation density of each T175 flask should be 2*106 cells. Pre-wash with Phosphate Buffered Saline (PBS), then trypsin/EDTA for 2-3 minutes, stop digestion by adding cell culture medium, and transfer to a new culture bottle.
(§13) HEK293 cells overexpressing the hERG potassium channel were cultured overnight at a cell density below 50%. Experimental cells were transferred to a cell bath embedded in an inverted microscope stage(Diaphot, Nikon) and perfused with extracellular fluid. The extracellular fluid contained 130 mM NaCl, 4 mM KCl, 1.8 mM CaCl2, 1 mM MgCl2, 10 mM glucose and 10 mM HEPES (pH 7.4 with NaOH) at a perfusion rate of 4 ml/min. The inner tube contains 130 mM KCl, 1 mM MgCl2, 5 mM EGTA, 5 mM MgATP and 10 mM HEPES (pH 7.2 with KOH). Membrane currents were recorded using a HEKA EPC-10 patch-clamp amplifier and [sequence] acquisition system (HEKA Instruments Inc., D-67466 Lambrecht, Pfalz, Germany). All experiments were done at room temperature (22-23° C.).
(§14) Electrodes (BF150-86-10) were straightened during the experiments using a P-97 microelectrode puller (Sutter Instrument Company, One Digital Drive, Novato, CA 94949). The inner diameter of the electrode is 1-1.5 mm, and the water entry resistance after filling with internal liquid is 2-4 MΩ.
(§15) When the whole-cell seal is formed, wait for the current to stabilize for 2 minutes (the current decay is less than 5% within 5 minutes, and the tail current value is greater than500 pA). At this time, the peak value of the tail current is the control current value. The extracellular fluid containing the drug to be tested is then perfused. The same procedure was repeated 3-5 times, exposing each cell to 4-6 increasing concentrations of compounds. Blocking and deactivation of hERG during compound exposure and washout were continuously recorded.
(§16) When the whole-cell seal was formed, the cell membrane voltage was clamped at -80 mV, depolarized for 2 seconds every 12 seconds, and the clamping voltage was depolarized from -80 mV to -50 mV under a 5-second repolarization pulse of -50 mV. Measure the peak tail current.
(§17) Peak hERG tail currents were measured under a 5 s repolarization pulse of -50 mV. Each drug concentration was plotted against the current inhibition rate as a function of the logarithm of the compound concentration. The following Hill equation was used to fit a concentration-response curve to fit IC50.
(§18) Y: test value; Bottom: the lowest test value (0); Top: the highest test value (1); Hillcoefficient: the maximum absolute value of the slope of the curve.
(§19) Data are presented as mean ± standard deviation.

[10] = target: T2, hERG potassium channel; experiment: Patch clamp experiments on the hERG ion channel (HEK293 cells overexpressing hERG)
Experimental: as §10, §11, §12, §13, §14, §15, §16, §17, §18, §19

[11] = target: T1, SHP2; details: according to WO2019183367, cited from earlier work
[12] = read-out: hERG, patch clamp, peak tail current, HEK293
[13] = Homo sapiens, MV4-11, cultured for 120 hrs
[14] = Homo sapiens, NCI-H358, ultra-low adsorption plate

T1 sequence (Q06124 whole entry): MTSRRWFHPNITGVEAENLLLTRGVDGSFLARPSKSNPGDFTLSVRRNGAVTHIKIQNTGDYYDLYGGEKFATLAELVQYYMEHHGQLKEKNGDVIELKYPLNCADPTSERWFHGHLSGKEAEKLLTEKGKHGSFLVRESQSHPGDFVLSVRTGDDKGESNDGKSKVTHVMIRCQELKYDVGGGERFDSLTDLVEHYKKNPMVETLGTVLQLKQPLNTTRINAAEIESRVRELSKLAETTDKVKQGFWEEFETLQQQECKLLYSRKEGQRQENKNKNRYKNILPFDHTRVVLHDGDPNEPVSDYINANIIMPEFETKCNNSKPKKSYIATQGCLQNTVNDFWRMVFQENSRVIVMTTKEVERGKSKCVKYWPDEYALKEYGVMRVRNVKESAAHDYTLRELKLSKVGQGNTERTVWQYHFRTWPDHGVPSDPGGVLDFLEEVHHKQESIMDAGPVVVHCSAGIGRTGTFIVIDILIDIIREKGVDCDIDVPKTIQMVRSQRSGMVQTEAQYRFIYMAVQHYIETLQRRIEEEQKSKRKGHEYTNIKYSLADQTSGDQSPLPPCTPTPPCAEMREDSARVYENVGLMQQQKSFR

Row | Structure (SMILES) | IC50 [1] | IC50 ([2]; cultured for 120 hrs) | IC50 ([3]; ultra-low adsorption plate) | CLint (µL/min/mg protein) human [4] | CLint (µL/min/mg protein) rat [5] | CLint (µL/min/mg protein) mouse [6] | CLint (µL/min/mg protein) monkey [7] | IC50 [10, 12] | IC50 [2, 13] | IC50 [3, 14] | IC50 [10] | other results
1 | NC(=O)c1ccc(NCC#Cc2cnc(N3CCC4(CC3)Cc3ccccc3[C@H]4N)c(CO)n2)cc1 [Compound A48, (S)-4-((3-(5-(1-amino-1,3-dihydrospiro[indene-2,4′-piperidin]-1′-yl)-6-(hydroxymethy 1)pyrazin-2-yl)prop-2-yn-1-yl)amino)benzamide] | 2 nM | 1.7 nM | 12 nM | 7.3 µL/min/mg protein | 15.8 µL/min/mg protein | 15.2 µL/min/mg protein | 8.6 µL/min/mg protein |  |  |  |  | CLint (µL/min/mg protein) dog ([8]; dog, microsomes): 26.3 µL/min/mg protein; IC50 [9]: > 20000 nM
2 | CC(=O)Nc1cccc(OCC#Cc2cnc(N3CCC4(CC3)Cc3ccccc3[C@H]4N)c(C(N)=O)n2)c1 [Compound A41] | 14 nM |  |  |  |  |  |  | > 20000 nM |  |  |  | 
3 | NC(=O)Cc1cccc(OCC#Cc2cnc(N3CCC4(CC3)Cc3ccccc3[C@H]4N)c(CO)n2)c1 [Compound A59, (S)-2-(3-((3-(5-(1-amino-1,3-dihydrospiro[indene-2,4′-piperidin]-1′-yl)-6-(hydroxymethyl)pyrazin-2-yl)prop-2-yn-1-yl)oxy)phenyl)acetamide] | 1.1 nM |  |  |  |  |  |  |  | 1 nM | 5.8 nM | 26000 nM | microsomal CLint at 2 µM [4]: 10.7 µL/min/mg; microsomal CLint at 2 µM [5]: 16.2 µL/min/mg; microsomal CLint at 2 µM [6]: 16.8 µL/min/mg; microsomal CLint at 2 µM [7]: 15.9 µL/min/mg; microsomal CLint at 2 µM ([8]; dog, microsomes): 14.9 µL/min/mg
4 | CP(C)(=O)c1ccc(OCC#Cc2cnc(N3CCC4(CC3)Cc3ccccc3[C@H]4N)c(CO)n2)cc1 [Compound A57] | 4.3 nM | 10 nM | 22 nM |  |  |  |  | > 20000 nM |  |  |  | 
5 | NC(=O)Cc1ccc(OCC#Cc2cnc(N3CCC4(CC3)Cc3ccccc3[C@H]4N)c(CO)n2)cc1 [Compound A71, (S)-2-(4-((3-(5-(1-amino-1,3-dihydrospiro[indene-2,4′-piperidin]-1′-yl)-6-(hydroxylmethyl)pyrazin-2-yl)prop-2-yn-1-yl)oxy)phenyl)ace tamide] | 2.9 nM |  |  |  |  |  |  |  | 2.3 nM | 4.3 nM | > 20000 nM | 
6 | N[C@@H]1c2ccccc2CC12CCN(c1ncc(C#CCOc3ccc(S(N)(=O)=O)cc3)nc1CO)CC2 [Compound A32, (S)-4-((3-(5-(1-amino-1,3-dihydrospiro[indene-2,4′-piperidin]-1′-yl)-6-(hydroxymethy 1)pyrazin-2-yl)prop-2-yn-1-yl)oxy)benzenesulfonamide] | 1.3 nM | 3.4 nM | 9 nM | 2.2 µL/min/mg protein | 14.7 µL/min/mg protein | 10.6 µL/min/mg protein | 10.1 µL/min/mg protein | > 20000 nM |  |  |  | CLint (µL/min/mg protein) dog ([8]; dog liver microsomes): 1.9 µL/min/mg protein
7 | N[C@@H]1c2ccccc2CC12CCN(c1ncc(C#CCOc3ccncc3)nc1CO)CC2 [Compound A18, (S) - (3-(1-amino-1,3-dihydrospiro [indene-2,4′-piperidine]-1′-yl)-6-(3-(pyridin-4-oxy)prop-1-yn-1-yl)pyrazin-2-yl) methanol] | 35 nM |  |  |  |  |  |  |  |  |  | > 20000 nM | 
8 | N[C@@H]1c2ccccc2CC12CCN(c1ncc(Sc3ccnc(Cl)c3Cl)nc1CO)CC2 [compound 243] |  |  |  |  |  |  |  |  |  |  |  | IC50 ([11]; read-out: IC50 in the SHP2 allosteric inhibition test (lower bound)): > 50 nM; IC50 ([11]; read-out: IC50 in the SHP2 allosteric inhibition test (upper bound)): ≤ 1000 nM
9 | N[C@@H]1c2ccccc2CC12CCN(c1ncc(C#CCNC(=O)c3ccccc3)nc1CO)CC2 [Compound A45] | 4.7 nM | 20 nM | 40 nM | 5.2 µL/min/mg protein | 7.9 µL/min/mg protein | 6.3 µL/min/mg protein | 3.2 µL/min/mg protein |  |  |  |  | CLint (µL/min/mg protein) dog ([8]; dog liver microsomes): 9.6 µL/min/mg protein
10 | NC(=O)c1ccc(OCC#Cc2cnc(N3CCC4(CC3)Cc3ccccc3[C@H]4N)c(CO)n2)cc1Cl [Compound A54, (S)-4-((3-(5-(1-amino-1,3-dihydrospiro[indene-2,4′-piperidin]-1′-yl)-6-(hydroxymethyl)pyrazin-2-yl)prop-2-yn-1-yl)oxy)-2-chlorobenzamide] | 0.7 nM |  |  |  |  |  |  |  | 1.6 nM | 2.2 nM |  | microsomal CLint at 2 µM [4]: 12.1 µL/min/mg; microsomal CLint at 2 µM [5]: 12.8 µL/min/mg; microsomal CLint at 2 µM [6]: 10.4 µL/min/mg; microsomal CLint at 2 µM [7]: 13.7 µL/min/mg; microsomal CLint at 2 µM ([8]; dog, microsomes): 12.8 µL/min/mg

— US20230339882A1, “SHP2 INHIBITOR AND COMPOSITION AND APPLICATION THEREOF” (Betta Pharmaceuticals Co., Ltd., priority 2020, published 2023)
